Tests used:
[1] = system: MDA-MB-231 cells; test: MTT cytotoxicity with PTX after siRNA nanoparticles, MDA-MB-231; type: cell-based; details: Homo sapiens; MDA-MB-231, 0.5 ng/mL PTX 48 hours; combination: nanoparticles 48 hours first; read-out: cell viability (MTT)
Method: (§1) Cytotoxicity assays were performed in a 96-well plate as described previously, by seeding 2,000 MDA-MB-231 or MDA-MB-231.DR cells/well. […] Next, the wells were washed twice with PBS and incubation with various concentrations of PTX in fresh media. After 2 additional days, the MTT reagent (Invitrogen) was added to the cells for 4 hours followed by the addition of SDS-HCl and further incubation for 4 hours. The absorbance of each well was measured at 570 nm using a SpectraMax spectrophotometer (Molecular Devices). Cellular viability was calculated as the average of the set of triplicates for each PTX concentration and was normalized relative to the no treatment control. Drug resistance was confirmed with an MTT assay to determine the IC50 of paclitaxel. The IC50 was defined as the dose of drug required to inhibit cell viability by 50%.

[2] = system: MDA-MB-231.DR cells; test: MTT cytotoxicity with PTX after siRNA nanoparticles, MDA-MB-231.DR; type: cell-based; details: Homo sapiens, 0.5 ng/mL PTX 48 hours, combination: nanoparticles 48 hours first, read-out: cell viability (MTT)
Method: as §1

[3] = Zeta-potential of siRNA-lipid complexes (Malvern Zetasizer); type: physicochemical
Method: (§2) The cationic lipid carriers are dissolved in ethanol at a stock concentration of 2.5 mM, while all siRNA is reconstituted in nuclease-free water at a 0.25 μg/μL (18.8 μM) concentration. Nanoparticles are formulated by mixing the carriers with siRNA for a period of 30 min in RNase-free phosphate buffer saline (PBS) at pre-specified N/P ratios (N=number of protonable amines in lipid, P=number of phosphate groups in the siRNA). In preparing the lipoplexes, proper dilutions were made such that the volume ratio of ethanol:water was kept constant at 1:20. Minimizing the amount of ethanol is important because it is effective in dissolving lipids, thus inhibiting particle formation. The diameters (as determined by dynamic light scattering) and zeta potentials of all nanoparticles were analyzed using a Malvern Zetasizer instrument at pH=7.4. siRNA encapsulation efficiency was calculated using a RiboGreen fluorescence-based assay from Invitrogen, designed specifically for detection of free RNA at […] wavelengths of 480 and 520 nm, respectively. Nanoparticles were created with all carriers in the library so that final siRNA concentrations were 1.6 μg/mL. A linear standard curve was utilized to calculate the encapsulation efficiencies from signal intensities measured by a SpectraMax microplate reader (Molecular Devices).

[4] = system: HT29 colon carcinoma cells; test: Cellular uptake of Alexa Fluor 488-siRNA via flow cytometry; type: cell-based, human; details: HT29, N/P=18, 4 h, 100 nM Alexa Fluor 488-siRNA
Method: Flow cytometry was used to investigate the cellular uptake of our delivery system in HT29 colon carcinoma cells. All carriers in the library were formulated into nanoparticles by condensing Alexa Fluor 488-labeled siRNA at the optimal N/P ratio determined by the above luciferase knockdown studies. Approximately 50,000 cancer cells were seeded in 6-well plates and allowed to grow until 30-50% confluence was reached. The cancer cells were transfected with a 100 nM siRNA dose in serum-free media. After 4 h, the transfection media were aspirated and the cells were washed twice with PBS. The cells were then trypsinized, collected, and fixed with 2% paraformaldehyde in PBS, prior to flow cytometric analysis.

[5] = system: Red blood cells (RBCs); test: pH-sensitive hemolytic activity of carrier library; type: cell-based, rat; details: all N/P ratios (5, 10, 15) and pHs (7.4, 6.5, 5.4) tested
Method: Hemolytic activity of each carrier was determined to verify the pH-sensitive membrane disruption capabilities of each carrier in the delivery system. Red blood cells (RBCs) extracted from rats were purchased from Innovative Research Inc. (Novi, Mich.) and diluted 1:50 in PBS solutions of pHs=5.4, 6.5, or 7.4. A total of 100 μL of nanoparticles were created at N/P ratios of 5, 10, 15 and then incubated with 100 μL of diluted RBCs at 37° C. for 2 h. Nanoparticles were formulated so that the final amine concentration for all the samples, after mixing with the RBCs, was 150 μM. Multiple pHs were tested to predict if the nanoparticles could disrupt membranes of the endosomal-lysosomal compartments (pH=5-6), without affecting the integrity of the outer cell membrane prior to endocytosis (pH=7.4). The absorbance of each test sample was measured on a SpectraMax spectrophotometer at a wavelength of 540 nm in order to determine the amount of hemoglobin released from the RBCs, due to membrane destabilization, relative to that achieved by a positive control treatment of 1% (v/v) Triton-X100 surfactant during the 2 hour incubation period.

[6] = Nanoparticle diameter and polydispersity by dynamic light scattering (Malvern Zetasizer); type: physicochemical; details: for Nanoparticle diameter as measured by dynamic light scattering: siRNA-lipid complexes
Method: as §2

Structure (SMILES) | viability at 0.0005 µg/mL [1] [%] | viability at 0.0005 µg/mL [2] [%] | Zeta-potential of siRNA-lipid complexes ([3]; pH = 7.4, N/P = 2) [mV] | Zeta-potential of siRNA-lipid complexes ([3]; pH = 7.4, N/P = 5) [mV] | Zeta-potential of siRNA-lipid complexes ([3]; pH = 7.4, N/P = 8) [mV] | Zeta-potential of siRNA-lipid complexes ([3]; pH = 7.4, N/P = 10) [mV] | Zeta-potential of siRNA-lipid complexes ([3]; pH = 7.4, N/P = 15) [mV] | cellular uptake, mean fluorescence intensity (MFI) [4] | hemolytic activity relative to Triton X-100 [5] | Polydispersity of siRNA-lipid complexes ([6]; N/P = 2) | Polydispersity of siRNA-lipid complexes ([6]; N/P = 5) | Polydispersity of siRNA-lipid complexes ([6]; N/P = 8) | Polydispersity of siRNA-lipid complexes ([6]; N/P = 10) | Polydispersity of siRNA-lipid complexes ([6]; N/P = 15) | Nanoparticle diameter as measured by dynamic light scattering ([6]; N/P = 2) [nm] | Nanoparticle diameter as measured by dynamic light scattering ([6]; N/P = 5) [nm] | Nanoparticle diameter as measured by dynamic light scattering ([6]; N/P = 8) [nm] | Nanoparticle diameter as measured by dynamic light scattering ([6]; N/P = 10) [nm] | Nanoparticle diameter as measured by dynamic light scattering ([6]; N/P = 15) [nm]
CC(=O)O[C@H]1C(=O)[C@@]2(C)[C@H]([C@H](OC(=O)c3ccccc3)[C@]3(O)C[C@H](OC(=O)[C@H](O)[C@@H](NC(=O)c4ccccc4)c4ccccc4)C(C)=C1C3(C)C)[C@]1(OC(C)=O)CO[C@@H]1C[C@@H]2O [PTX, paclitaxel] | 44.6 ± 6.6 | 80.7 ± 2.9 |  |  |  |  |  |  |  |  |  |  |  |  |  |  |  |  | 
CCCCC/C=C\C/C=C\CCCCCCCC(=O)NC(CS)C(=O)NCCNC(=O)CCN(CCCNCCCCNCCCN)CCC(=O)NCCNC(=O)C(CS)NC(=O)CCCCCCC/C=C\C/C=C\CCCCC (centres unmarked) [SCLn] |  |  | −28.35 ± 3.61 | 26.89 ± 1.85 | 26.03 ± 2.25 | 28.59 ± 2.25 | 17.15 ± 2.99 | 4066±185 | greatest hemolytic activity | 0.298 | 0.233 | 0.140 | 0.184 | 0.180 | 482 ± 40 | 185 ± 22 | 51 ± 14 | 50 ± 12 | 48 ± 12
CCCCCCCC/C=C\CCCCCCCC(=O)NC(CS)C(=O)NCCNC(=O)CCN(CCCNCCCCNCCCN)CCC(=O)NCCNC(=O)C(CS)NC(=O)CCCCCCC/C=C\CCCCCCCC (centres unmarked) [SCO] |  |  | −29.49 ± 1.33 | 26.60 ± 2.76 | 23.16 ± 1.88 | 23.29 ± 3.11 | 25.16 ± 3.75 |  | greatest hemolytic activity | 0.339 | 0.236 | 0.19 | 0.158 | 0.176 | 407 ± 35 | 138 ± 28 | 63 ± 12 | 65 ± 11 | 53 ± 9

Reference: patent publication US11129845B2, “Compositions and methods for the delivery of nucleic acids” (CASE WESTERN RESERVE UNIVERSITY, priority 2014, dated 2021)
